In ChEMBL document CHEMBL3621195, “Analogues of the marine alkaloids oroidin, clathrodin, and hymenidin induce apoptosis in human HepG2 and THP-1 cancer cells” (Medchemcomm, 2015):

What follows are molecules tested on HepG2 (assay: Induction of apoptosis in human HepG2 cells at 50 uM incubated for 24 hrs by Annexin V-FITC and propidium iodide staining based microcapillary flow cytometry). Details: not given.
Format: functional
For `Cc1c(NC(=O)c2cc3ccccc3o2)cccc1-n1cnnn1`, the Activity was 45%.
`Nc1nc2c(s1)C[C@@H](NC(=O)c1cc3ccccc3[nH]1)CC2` showed an Activity of 27%.
`Cl.Cl.Nc1nc2c(s1)C[C@@H](NC(=O)[C@@H]1CCCN1)CC2` was tested, and the Activity was 22%.
`Cn1cccc1C(=O)N[C@H]1CCc2nc(N)sc2C1` was tested, and the Activity was 20%.
Work on `Nc1nc2c(s1)C[C@@H](NC(=O)c1ccco1)CC2` yielded an Activity of 29%.
Molecule `Nc1nc2c(s1)C[C@@H](NCc1ccc[nH]1)CC2` has an Activity of 30%.
Work on `Nc1nc2c(s1)CC(CNC(=O)c1ccc[nH]1)CC2` (stereo not given) yielded an Activity of 20%.
In the case of `Nc1nc2c(s1)CC(CNC(=O)c1cc(Br)c(Br)[nH]1)CC2` (stereo not given), the Activity is reported as 23%.
For `Nc1nc2c(s1)CC(CNC(=O)c1cc3ccccc3[nH]1)CC2` (stereo not given), the Activity was 32%.
For `CC(C)(C)OC(=O)N1CCC[C@H]1C(=O)NCC1CCc2nc(N)sc2C1` (stereo not given in full), the Activity was 23%.
Work on `Cl.Cl.Nc1nc2c(s1)CC(CNC(=O)[C@@H]1CCCN1)CC2` (stereo not given in full) yielded an Activity of 27%.
`Nc1nc2c(s1)C[C@@H](NC(=O)c1ccc[nH]1)CC2` gave an Activity of 23%.
In the case of `Nc1nc2c(s1)C[C@@H](NC(=O)c1cc(Br)c[nH]1)CC2`, the Activity is reported as 28%.
In the case of `Nc1nc2c(s1)C[C@@H](NC(=O)c1cc(Br)c(Br)[nH]1)CC2`, the Activity is reported as 35%.
For `CNc1nc(-c2cccc(NC(=O)c3cc4ccccc4[nH]3)c2)cn1C(=O)OC(C)(C)C`, the Activity was 90%.
For `CC(C)(C)OC(=O)n1cc(-c2ccc(NC(=O)c3ccc[nH]3)cc2)nc1N`, the Activity was 24%.
`Cl.Nc1nc(-c2cccc(NC(=O)c3ccc[nH]3)c2)c[nH]1` was tested, and the Activity was 13%.
For `Cl.Nc1nc(-c2ccc(NC(=O)c3ccc[nH]3)cc2)c[nH]1`, the Activity was 20%.
Work on `CC(C)(C)OC(=O)n1cc(-c2cccc(NC(=O)c3cc[nH]c3)c2)nc1N` yielded an Activity of 19%.
With `CC(C)(C)OC(=O)n1cc(-c2cccc(NC(=O)c3cc4ccccc4[nH]3)c2)nc1N` the Activity was 75%.
Work on `CC(C)(C)OC(=O)n1cc(-c2ccc(NC(=O)c3cc4ccccc4[nH]3)cc2)nc1N` yielded an Activity of 90%.
`Cl.Nc1nc(-c2cccc(NC(=O)c3cc4ccccc4[nH]3)c2)c[nH]1` gave an Activity of 77%.
With `CC(C)(C)OC(=O)n1cc(-c2cccc(NC(=O)c3c[nH]c4ccccc34)c2)nc1N` the Activity was 62%.
`Cl.Nc1nc(-c2cccc(NC(=O)c3c[nH]c4ccccc34)c2)c[nH]1` was tested, and the Activity was 55%.
`CNc1nc(-c2cccc(NC(=O)c3ccco3)c2)cn1C(=O)OC(C)(C)C` showed an Activity of 44%.
Work on `CC(C)(C)OC(=O)n1cc(-c2cccc(NC(=O)c3ccc[nH]3)c2)nc1N` yielded an Activity of 21%.
`Cl.Nc1nc(-c2cccc(NC(=O)c3cc4cc(OCc5ccccc5)ccc4[nH]3)c2)c[nH]1` gave an Activity of 50%.
For `Nc1nc(/C=C/CNC(=O)c2cc3ccccc3[nH]2)c[nH]1`, the Activity was 36%.
`Nc1nc(/C=C/CNC(=O)c2cc3cc(F)ccc3[nH]2)c[nH]1` was tested, and the Activity was 38%.
`CC(C)(C)OC(=O)n1cc(-c2cccc(NC(=O)c3cc4cc(OC(F)(F)F)ccc4[nH]3)c2)nc1N` gave an Activity of 43%.
In the case of `CC(C)(C)OC(=O)n1cc(-c2cccc(NC(=O)c3cc4cc(O)ccc4[nH]3)c2)nc1N`, the Activity is reported as 56%.
For `Cl.Nc1nc(-c2cccc(NC(=O)c3cc4cc(O)ccc4[nH]3)c2)c[nH]1`, the Activity was 19%.
Work on `Cl.Nc1nc(-c2cccc(NC(=O)c3cc4cc(F)ccc4[nH]3)c2)c[nH]1` yielded an Activity of 98%.
`COc1ccc2[nH]c(C(=O)Nc3cccc(-c4c[nH]c(N)n4)c3)cc2c1.Cl` was tested, and the Activity was 78%.
With `Cl.Nc1nc(-c2cccc(NC(=O)c3cc4sccc4[nH]3)c2)c[nH]1` the Activity was 96%.
With `O=C(Nc1cccc(-c2ccn[nH]2)c1)c1cc2ccccc2[nH]1` the Activity was 68%.
For `Nc1nc(-c2cccc(NC(=O)c3ccc[nH]3)c2)cn1Cc1ccccc1`, the Activity was 54%.
With `CC(C)(C)OC(=O)n1cc(-c2ccc(NCc3c[nH]cn3)cc2)nc1N` the Activity was 39%.
Molecule `CNC1=NC(c2cccc(NC(=O)c3ccco3)c2)CN1.Cl` (stereo not given) has an Activity of 28%.
In the case of `Nc1nc(-c2cccc(NCc3ccc[nH]3)c2)cn1Cc1ccccc1`, the Activity is reported as 86%.
`CC(C)(C)OC(=O)n1cc(-c2ccc(NCc3ccc[nH]3)cc2)nc1N` was tested, and the Activity was 34%.
`CC(C)(C)OC(=O)N1CCC[C@H]1C(=O)Nc1ccc(-c2cn(C(=O)OC(C)(C)C)c(N)n2)cc1` showed an Activity of 20%.
In the case of `CC(C)(C)OC(=O)N1CCC[C@@H]1C(=O)Nc1ccc(-c2cn(C(=O)OC(C)(C)C)c(N)n2)cc1`, the Activity is reported as 23%.
Work on `COCc1c(C(=O)Nc2cccc(-c3ccn[nH]3)c2)sc2cccc(F)c12` yielded an Activity of 65%.
`O=C(Nc1cccc(-c2ccn[nH]2)c1)c1ccc2[nH]nnc2c1` gave an Activity of 20%.
`Nc1nc(/C=C/CNC(=O)c2cc(Br)c[nH]2)c[nH]1` was tested, and the Activity was 25%.
Molecule `Nc1nc(CCCNC(=O)c2ccc[nH]2)c[nH]1` has an Activity of 25%.
Molecule `Nc1nc(/C=C/CNC(=O)c2ccccc2)c[nH]1` has an Activity of 33%.
`COc1ccc2[nH]c(C(=O)Nc3cccc(-c4cn(C(=O)OC(C)(C)C)c(N)n4)c3)cc2c1` showed an Activity of 87%.
Molecule `CC(C)(C)OC(=O)n1cc(-c2cccc(NC(=O)c3cc4cc(F)ccc4[nH]3)c2)nc1N` has an Activity of 89%.
In the case of `CC(C)(C)OC(=O)n1cc(-c2cccc(NC(=O)c3cc4sccc4[nH]3)c2)nc1N`, the Activity is reported as 86%.
Molecule `CNC1=NC(c2cccc(NC(=O)c3ccco3)c2)CN1C(=O)OC(C)(C)C` (stereo not given) has an Activity of 32%.
`CC(C)(C)OC(=O)n1cc(-c2cccc(NC(=O)c3cc4cc(OCc5ccccc5)ccc4[nH]3)c2)nc1N` gave an Activity of 81%.
With `CC(C)(C)OC(=O)n1cc(-c2cccc(NC(=O)c3cc4cc(Cl)ccc4[nH]3)c2)nc1N` the Activity was 91%.
For `CNC1=NC(c2cccc(NC(=O)c3ccc[nH]3)c2)CN1C(=O)OC(C)(C)C` (stereo not given), the Activity was 31%.
Molecule `CNC1=NC(c2cccc(NC(=O)c3cc4ccccc4[nH]3)c2)CN1C(=O)OC(C)(C)C` (stereo not given) has an Activity of 74%.
`Cl.Nc1nc(-c2cccc(NC(=O)c3cc[nH]c3)c2)c[nH]1` showed an Activity of 16%.
Work on `CNC1=NC(c2cccc(NC(=O)c3ccc[nH]3)c2)CN1.Cl` (stereo not given) yielded an Activity of 28%.
For `CNC1=NC(c2cccc(NC(=O)c3cc4ccccc4[nH]3)c2)CN1.Cl` (stereo not given), the Activity was 27%.
In the case of `Cl.Cl.Nc1nc(CN2CCN(C(=O)c3ccc[nH]3)CC2)c[nH]1`, the Activity is reported as 27%.
Work on `Cl.Cl.Nc1nc(CN2CCN(Cc3ccc[nH]3)CC2)c[nH]1` yielded an Activity of 34%.
For `Cl.Cl.Cl.Nc1nc(CN2CCN(C(=O)[C@@H]3CCCN3)CC2)c[nH]1`, the Activity was 28%.
For `Cl.Cl.Nc1nc(CN2CCN(C(=O)c3cc4ccccc4[nH]3)CC2)c[nH]1`, the Activity was 32%.
For `Cl.Cl.Nc1nc(CN2CCN(C(=O)c3c[nH]c4ccccc34)CC2)c[nH]1`, the Activity was 30%.
For `Cl.Cl.Nc1nc(CN2CCN(Cc3ccccc3)CC2)c[nH]1`, the Activity was 32%.
`Cl.Cl.Nc1nc(CN2CCN(C(=O)c3cccnc3)CC2)c[nH]1` was tested, and the Activity was 28%.
Molecule `O=C(c1ccc[nH]1)N1CCN(Cc2c[nH]cn2)CC1` has an Activity of 23%.
`Nc1ncc(CC(=O)N2CCN(C(=O)c3ccc[nH]3)CC2)s1` gave an Activity of 23%.
In the case of `Nc1ncc(C(=O)N2CCN(C(=O)c3ccc[nH]3)CC2)s1`, the Activity is reported as 20%.
Work on `CC(C)(C)OC(=O)n1cc(-c2cccc(NCc3ccc[nH]3)c2)nc1N` yielded an Activity of 40%.
For `O=C1CCc2cc(C(=O)Nc3cccc(-c4ccn[nH]4)c3)ccc2N1`, the Activity was 26%.
Work on `Cc1nc(-c2cccc(NC(=O)c3cc4ccccc4[nH]3)c2)cs1` yielded an Activity of 57%.
Molecule `Cl.Cl.Nc1nc(-c2ccc(NC(=O)[C@@H]3CCCN3)cc2)c[nH]1` has an Activity of 22%.
`O=C(Nc1cccc(-c2ccn[nH]2)c1)c1cc2ccccc2o1` showed an Activity of 40%.
Molecule `O=C(Nc1cccc(-c2ccn[nH]2)c1)c1ccc2[nH]cnc2c1` has an Activity of 47%.
With `Cc1cc(C)n2nc(C(=O)Nc3cccc(-c4ccn[nH]4)c3)nc2n1` the Activity was 31%.
Molecule `O=C(Nc1cccc(-c2ccn[nH]2)c1)c1cc2ccccc2c(=O)[nH]1` has an Activity of 91%.
For `Cc1nc(-c2cccc(NC(=O)c3cn4ccccc4n3)c2)cs1`, the Activity was 25%.
`CCn1cnnc1-c1cccc(NC(=O)c2cc3ccc(C)cc3[nH]2)c1` was tested, and the Activity was 55%.
Work on `O=C(Nc1cccc(-n2cnnn2)c1)c1cc2ccccc2[nH]1` yielded an Activity of 56%.
`O=C(Nc1cccc(-n2cnnn2)c1)c1cn2ccccc2n1` gave an Activity of 27%.
Work on `O=C(NC1CC1)c1cccc(NC(=O)c2cc3c(F)cccc3[nH]2)c1` yielded an Activity of 51%.
For `Cc1cc(=O)[nH]c(-c2cccc(NC(=O)c3ccc(N(C)C)cc3)c2)n1`, the Activity was 37%.
Molecule `Cc1ccn2cc(C(=O)Nc3cccc(-c4nnco4)c3)nc2c1` has an Activity of 6%.
`CCn1nnnc1-c1cccc(NC(=O)c2cc3ccccc3[nH]2)c1` was tested, and the Activity was 28%.
`O=C(Nc1cccc(-n2cnnn2)c1)c1cc2c(F)cccc2s1` showed an Activity of 39%.
Molecule `Cc1ccc2cc(C(=O)Nc3cccc(C(N)=O)c3)[nH]c2c1` has an Activity of 66%.
With `O=C(Nc1cccc(N2CCCC2=O)c1)c1cc2ccccc2[nH]1` the Activity was 43%.
With `CC(C)(C)OC(=O)N1CCCC1C(=O)Nc1cccc(-c2cn(C(=O)OC(C)(C)C)c(N)n2)c1` (single isomer, unassigned) the Activity was 18%.
`Cl.Cl.Nc1nc(-c2cccc(NC(=O)C3CCCN3)c2)c[nH]1` (single isomer, unassigned) gave an Activity of 16%.
For `Nc1ncc(/C=C/CNC(=O)c2ccc[nH]2)[nH]1` [CLATHRODIN], the Activity was 27%.
Molecule `Nc1ncc(/C=C/CNC(=O)c2cc(Br)c(Br)[nH]2)[nH]1` [OROIDIN] has an Activity of 35%.

These molecules were tested on HepG2 (assay: Induction of apoptosis in human HepG2 cells incubated for 24 hrs by Annexin V-FITC and propidium iodide staining based microcapillary flow cytometry). Details: HepG2, 24 h.
Format: functional, cell-based
Molecule `Cl.Nc1nc(-c2cccc(NC(=O)c3cc4cc(F)ccc4[nH]3)c2)c[nH]1` has an EC50 of 13 µM.
`COc1ccc2[nH]c(C(=O)Nc3cccc(-c4c[nH]c(N)n4)c3)cc2c1.Cl` gave an EC50 of 18 µM.
In the case of `Cl.Nc1nc(-c2cccc(NC(=O)c3cc4sccc4[nH]3)c2)c[nH]1`, the EC50 is reported as 42 µM.

What follows are molecules tested on THP-1 (assay: Induction of apoptosis in human THP1 cells incubated for 24 hrs by Annexin V-FITC and propidium iodide staining based microcapillary flow cytometry). Details: THP-1, 24 h.
Format: functional, cell-based
Work on `Cl.Nc1nc(-c2cccc(NC(=O)c3cc4cc(F)ccc4[nH]3)c2)c[nH]1` yielded an EC50 of 23 µM.
With `COc1ccc2[nH]c(C(=O)Nc3cccc(-c4c[nH]c(N)n4)c3)cc2c1.Cl` the EC50 was 20 µM.
With `Cl.Nc1nc(-c2cccc(NC(=O)c3cc4sccc4[nH]3)c2)c[nH]1` the EC50 was > 50 µM.

What follows are molecules tested on THP-1 (assay: Induction of apoptosis in human THP1 cells at 50 uM incubated for 24 hrs by Annexin V-FITC and propidium iodide staining based microcapillary flow cytometry). Details: not given.
Format: functional
With `Cl.Nc1nc(-c2cccc(NC(=O)c3cc4cc(F)ccc4[nH]3)c2)c[nH]1` the Activity was 87%.
For `COc1ccc2[nH]c(C(=O)Nc3cccc(-c4c[nH]c(N)n4)c3)cc2c1.Cl`, the Activity was 87%.
`Cl.Nc1nc(-c2cccc(NC(=O)c3cc4sccc4[nH]3)c2)c[nH]1` gave an Activity of 12%.

Each molecule was assayed on THP-1 (assay: Induction of cell cycle arrest in human THP1 cells assessed accumulation at subG1 phase at 25 uM incubated for 24 hrs by propidium iodide staining based microcapillary flow cytometry (reference value: 2 +/- 1%)). Details: not given.
Format: functional
With `Cl.Nc1nc(-c2cccc(NC(=O)c3cc4cc(F)ccc4[nH]3)c2)c[nH]1` the Activity was 36%.
`COc1ccc2[nH]c(C(=O)Nc3cccc(-c4c[nH]c(N)n4)c3)cc2c1.Cl` gave an Activity of 45%.

Each molecule was assayed on THP-1 (assay: Induction of cell cycle arrest in human THP1 cells assessed accumulation at subG1 phase at 25 uM incubated for 48 hrs by propidium iodide staining based microcapillary flow cytometry (reference value: 2 +/- 1%)). Details: not given.
Format: functional
`Cl.Nc1nc(-c2cccc(NC(=O)c3cc4cc(F)ccc4[nH]3)c2)c[nH]1` was tested, and the Activity was 41%.
Work on `COc1ccc2[nH]c(C(=O)Nc3cccc(-c4c[nH]c(N)n4)c3)cc2c1.Cl` yielded an Activity of 60%.
